Assay results reported in the NIST ThermoML archive (doi:10.1021/acs.jced.6b00424).
Numbers after ± are expanded uncertainties.

Experiment: refractive index (Na D-line) (dimensionless)
Conditions: 293.15 K, Liquid, Standard Abbe refractometry

SMILES | refractive index (101.23 kPa) | refractive index (100 kPa)
c1ccoc1 [furan] | 1.4218 ± 0.0004 | –
Cc1ccccc1 [toluene] | – | 1.4966 ± 0.0007
